# Reference: patent publication US6737383B1, “Herbicidal oxadiazolidines” (priority 1999, dated 2004)
# Legend:
# soybean = test: Test B pre/postemergence soybean; type: in vivo, Glycine max; details: for Soybean plant response rating: scale of 0 to 10 where 0 is no effect and 10 is complete control
# Outline: (§1)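 Herbicidal effect was estimated by eye on a ten-point control scale after plants spent twelve to sixteen days in a greenhouse following soil or foliar treatment. Foliar sprays targeted plants at one to four leaves; all doses were formulated in a non-phytotoxic solvent with surfactant.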
# bamyardgrass = test: Test B flood test barnyardgrass; type: in vivo, Echinochloa crus-galli
# Outline: (§2)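 Each value is a visual injury score relative to controls, with 10 meaning complete control and 0 no effect. Evaluation took place twelve to sixteen days after the 2-leaf-stage plants were treated and kept in the greenhouse.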
# wheat = test: Test B pre/postemergence wheat; type: in vivo, Triticum aestivum; details: for Wheat plant response rating: scale of 0 to 10 where 0 is no effect and 10 is complete control
# Outline: as §1
# rape = test: Test B pre/postemergence rape; type: in vivo, Brassica napus; details: for Rape plant response rating: scale of 0 to 10 where 0 is no effect and 10 is complete control
# Outline: as §1
# velvetleaf = test: Test B pre/postemergence velvetleaf; type: in vivo, Abutilon theophrasti; details: for Velvetleaf plant response rating: scale of 0 to 10 where 0 is no effect and 10 is complete control
# Outline: as §1
# cocklebur = test: Test B pre/postemergence cocklebur; type: in vivo, Xanthium strumarium; details: for Cocklebur plant response rating: scale of 0 to 10 where 0 is no effect and 10 is complete control
# Outline: as §1
# duck salad = test: Test B flood test duck salad; type: in vivo, Heteranthera limosa
# Outline: as §2
# corn = test: Test B pre/postemergence corn; type: in vivo, Zea mays; details: for Corn plant response rating: scale of 0 to 10 where 0 is no effect and 10 is complete control
# Outline: as §1
# wild oat = test: Test B pre/postemergence wild oat; type: in vivo, Avena fatua; details: for Wild oats plant response rating: scale of 0 to 10 where 0 is no effect and 10 is complete control
# Outline: as §1
# crabgrass = test: Test B pre/postemergence crabgrass; type: in vivo, Digitaria sanguinalis; details: for Crabgrass plant response rating: scale of 0 to 10 where 0 is no effect and 10 is complete control
# Outline: as §1
# blackgrass = test: Test B pre/postemergence blackgrass; type: in vivo, Alopecurus myosuroides
# Outline: as §1
# smallflower flatsedge = test: Test B flood test smallflower flatsedge; type: in vivo, Cyperus difformis
# Outline: as §2
# pigweed = test: Test B pre/postemergence pigweed; type: in vivo, Amaranthus retroflexus; details: for Redroot pigweed plant response rating: scale of 0 to 10 where 0 is no effect and 10 is complete control
# Outline: as §1
# giant foxtail = test: Test B pre/postemergence giant foxtail; type: in vivo, Setaria faberii; details: for Giant foxtail plant response rating: scale of 0 to 10 where 0 is no effect and 10 is complete control
# Outline: as §1
# rice = test: Test B flood test rice; type: in vivo, Oryza sativa
# Outline: as §2
# sugar beet = test: Test B pre/postemergence sugar beet; type: in vivo, Beta vulgaris; details: for Sugarbeets plant response rating: scale of 0 to 10 where 0 is no effect and 10 is complete control
# Outline: as §1
# surinam grass = test: Test B pre/postemergence surinam grass; type: in vivo, Brachiaria decumbens
# Outline: as §1
# morningglory = test: Test B pre/postemergence morningglory; type: in vivo, Ipomoea hederacea; details: for Morningglory plant response rating: scale of 0 to 10 where 0 is no effect and 10 is complete control
# Outline: as §1
# bedstraw = test: Test B pre/postemergence bedstraw; type: in vivo, Galium aparine
# Outline: as §1
# purple nutsedge = test: Test B pre/postemergence purple nutsedge; type: in vivo, Cyperus rotundus; details: for Nutsedge plant response rating: scale of 0 to 10 where 0 is no effect and 10 is complete control
# Outline: as §1
# [1] = Postemergence, Rate 125 g/ha, scale 0 to 10, 0 is no effect, 10 is complete control
# [2] = Preemergence, Rate 62 g/ha, scale 0 to 10 (0 no effect, 10 complete control)
# [3] = Rate 500 g/ha, Postemergence, scale 0 to 10, 0 no effect, 10 complete control
# [4] = Postemergence (flood test), Rate 125 g/ha, scale 0 to 10, 0 is no effect, 10 is complete control
# [5] = Rate 62 g/ha, Postemergence (flood test species), scale of 0 to 10 where 0 is no effect and 10 is complete control
# [6] = Rate 500 g/ha, listed under Postemergence (flood test species), scale 0 to 10, 0 no effect, 10 complete control
# [7] = Preemergence, Rate 250 g/ha, scale of 0 to 10 where 0 is no effect and 10 is complete control
# [8] = Preemergence, Rate 500 g/ha, scale of 0 to 10 where 0 is no effect and 10 is complete control
# [9] = Rate 62 g/ha, Postemergence, scale of 0 to 10 where 0 is no effect and 10 is complete control
# [10] = Rate 250 g/ha, Postemergence, scale of 0 to 10 where 0 is no effect and 10 is complete control
smiles,measurement,setting,value
CC(C)C(C)n1c(=O)on(C(=O)N(c2ccccc2)C(C)C)c1=O (centres unmarked) [Compound 355],"Plant response rating, Soybean",soybean; [1],2
same,"Plant response rating, Soybean",soybean; [2],0
same,Soybean plant response rating (0 to 10 scale),"soybean; Preemergence, Rate 125 g/ha",0
same,Soybean plant response rating,"soybean; Preemergence, Rate 250 g/ha",0
same,Soybean plant response rating,"soybean; Preemergence, Rate 500 g/ha",0
same,Soybean plant response rating,"soybean; Rate 62 g/ha, Postemergence",1
same,"Plant response rating, Soybean",soybean; [3],3
same,"Plant response rating, Barnyardgrass",bamyardgrass; [4],8
same,Barnyardgrass plant response rating,bamyardgrass; [5],1
same,"Plant response rating, Barnyardgrass","bamyardgrass; Rate 250 g/ha, Postemergence (flood test species), scale of 0 to 10 where 0 is no effect and 10 is complete control",8
same,"Plant response rating, Barnyardgrass",bamyardgrass; [6],8
same,"Plant response rating, Wheat",wheat; [1],2
same,"Plant response rating, Wheat",wheat; [2],0
same,Wheat plant response rating (0 to 10 scale),"wheat; Preemergence, Rate 125 g/ha",0
same,Wheat plant response rating,"wheat; Preemergence, Rate 250 g/ha",0
same,Wheat plant response rating,"wheat; Preemergence, Rate 500 g/ha",2
same,Wheat plant response rating,"wheat; Rate 62 g/ha, Postemergence",0
same,"Plant response rating, Wheat",wheat; [3],3
same,"Plant response rating, Rape",rape; [1],0
same,"Plant response rating, Rape",rape; [2],0
same,Rape plant response rating (0 to 10 scale),"rape; Preemergence, Rate 125 g/ha",0
same,Rape plant response rating,"rape; Preemergence, Rate 250 g/ha",0
same,Rape plant response rating,"rape; Preemergence, Rate 500 g/ha",5
same,Rape plant response rating,"rape; Rate 62 g/ha, Postemergence",0
same,"Plant response rating, Rape",rape; [3],0
same,"Plant response rating, Velvetleaf",velvetleaf; [1],0
same,"Plant response rating, Velvetleaf",velvetleaf; [2],0
same,Velvetleaf plant response rating (0 to 10 scale),"velvetleaf; Preemergence, Rate 125 g/ha",2
same,Velvetleaf plant response rating,"velvetleaf; Preemergence, Rate 250 g/ha",3
same,Velvetleaf plant response rating,"velvetleaf; Preemergence, Rate 500 g/ha",5
same,Velvetleaf plant response rating,"velvetleaf; Rate 62 g/ha, Postemergence",0
same,"Plant response rating, Velvetleaf",velvetleaf; [3],2
same,"Plant response rating, Cocklebur",cocklebur; [1],0
same,"Plant response rating, Cocklebur",cocklebur; [2],0
same,Cocklebur plant response rating (0 to 10 scale),"cocklebur; Preemergence, Rate 125 g/ha",0
same,Cocklebur plant response rating,"cocklebur; Preemergence, Rate 250 g/ha",0
same,Cocklebur plant response rating,"cocklebur; Rate 62 g/ha, Postemergence",0
same,"Plant response rating, Cocklebur",cocklebur; [3],4
same,"Plant response rating, Ducksalad",duck salad; [4],0
same,Ducksalad plant response rating,duck salad; [5],0
same,"Plant response rating, Ducksalad",duck salad; [6],0
same,"Plant response rating, Corn",corn; [1],0
same,"Plant response rating, Corn",corn; [2],0
same,Corn plant response rating (0 to 10 scale),"corn; Preemergence, Rate 125 g/ha",0
same,Corn plant response rating,"corn; Preemergence, Rate 250 g/ha",3
same,Corn plant response rating,"corn; Preemergence, Rate 500 g/ha",4
same,Corn plant response rating,"corn; Rate 62 g/ha, Postemergence",0
same,"Plant response rating, Corn",corn; [3],0
same,"Plant response rating, Wild oats",wild oat; [1],3
same,"Plant response rating, Wild oats",wild oat; [2],0
same,Wild oats plant response rating (0 to 10 scale),"wild oat; Preemergence, Rate 125 g/ha",0
same,Wild oats plant response rating,"wild oat; Preemergence, Rate 250 g/ha",0
same,Wild oats plant response rating,"wild oat; Preemergence, Rate 500 g/ha",9
same,Wild oats plant response rating,"wild oat; Rate 62 g/ha, Postemergence",0
same,"Plant response rating, Wild oats",wild oat; [3],5
same,"Plant response rating, Crabgrass",crabgrass; [1],0
same,"Plant response rating, Crabgrass",crabgrass; [2],4
same,Crabgrass plant response rating (0 to 10 scale),"crabgrass; Preemergence, Rate 125 g/ha",10
same,Crabgrass plant response rating,"crabgrass; Preemergence, Rate 250 g/ha",10
same,Crabgrass plant response rating,"crabgrass; Preemergence, Rate 500 g/ha",10
same,Crabgrass plant response rating,"crabgrass; Rate 62 g/ha, Postemergence",0
same,"Plant response rating, Crabgrass",crabgrass; [3],2
same,"Plant response rating, Blackgrass",blackgrass; [1],3
same,"Plant response rating, Blackgrass",blackgrass; [2],2
same,Blackgrass plant response rating (0 to 10 scale),"blackgrass; Preemergence, Rate 125 g/ha",4
same,Blackgrass plant response rating,blackgrass; [7],5
same,Blackgrass plant response rating,blackgrass; [8],10
same,Blackgrass plant response rating,blackgrass; [9],3
same,"Plant response rating, Blackgrass",blackgrass; [10],6
same,"Plant response rating, Blackgrass",blackgrass; [3],6
same,"Plant response rating, S. Flatsedge",smallflower flatsedge; [4],2
same,S. Flatsedge plant response rating,smallflower flatsedge; [5],0
same,"Plant response rating, S. Flatsedge",smallflower flatsedge; [6],8
same,"Plant response rating, Redroot pigweed",pigweed; [1],0
same,Redroot pigweed plant response rating (0 to 10 scale),"pigweed; Preemergence, Rate 125 g/ha",7
same,Redroot pigweed plant response rating,"pigweed; Preemergence, Rate 250 g/ha",10
same,Redroot pigweed plant response rating,"pigweed; Preemergence, Rate 500 g/ha",10
same,Redroot pigweed plant response rating,"pigweed; Rate 62 g/ha, Postemergence",0
same,"Plant response rating, Redroot pigweed",pigweed; [3],3
same,"Plant response rating, Giant foxtail",giant foxtail; [1],2
same,"Plant response rating, Giant foxtail",giant foxtail; [2],10
same,Giant foxtail plant response rating (0 to 10 scale),"giant foxtail; Preemergence, Rate 125 g/ha",10
same,Giant foxtail plant response rating,"giant foxtail; Preemergence, Rate 250 g/ha",10
same,Giant foxtail plant response rating,"giant foxtail; Preemergence, Rate 500 g/ha",10
same,Giant foxtail plant response rating,"giant foxtail; Rate 62 g/ha, Postemergence",2
same,"Plant response rating, Giant foxtail",giant foxtail; [3],8
same,"Plant response rating, Rice",rice; [4],0
same,Rice plant response rating,rice; [5],0
same,"Plant response rating, Rice",rice; [6],0
same,"Plant response rating, Sugarbeets",sugar beet; [1],0
same,"Plant response rating, Sugarbeets",sugar beet; [2],0
same,Sugarbeets plant response rating (0 to 10 scale),"sugar beet; Preemergence, Rate 125 g/ha",0
same,Sugarbeets plant response rating,"sugar beet; Preemergence, Rate 250 g/ha",2
same,Sugarbeets plant response rating,"sugar beet; Preemergence, Rate 500 g/ha",3
same,Sugarbeets plant response rating,"sugar beet; Rate 62 g/ha, Postemergence",0
same,"Plant response rating, Sugarbeets",sugar beet; [3],0
same,"Plant response rating, B. signalgrass",surinam grass; [1],0
same,"Plant response rating, B. signalgrass",surinam grass; [2],0
same,"B. signalgrass plant response rating (0 to 10 scale, 0 is no effect, 10 is complete control)","surinam grass; Preemergence, Rate 125 g/ha",2
same,B. signalgrass plant response rating,surinam grass; [7],3
same,B. signalgrass plant response rating,surinam grass; [8],6
same,B. signalgrass plant response rating,surinam grass; [9],0
same,"Plant response rating, B. signalgrass",surinam grass; [10],0
same,"Plant response rating, B. signalgrass",surinam grass; [3],2
same,"Plant response rating, Morningglory",morningglory; [1],5
same,"Plant response rating, Morningglory",morningglory; [2],0
same,Morningglory plant response rating (0 to 10 scale),"morningglory; Preemergence, Rate 125 g/ha",0
same,Morningglory plant response rating,"morningglory; Preemergence, Rate 250 g/ha",0
same,Morningglory plant response rating,"morningglory; Preemergence, Rate 500 g/ha",2
same,Morningglory plant response rating,"morningglory; Rate 62 g/ha, Postemergence",2
same,"Plant response rating, Morningglory",morningglory; [3],8
same,"Plant response rating, Bedstraw",bedstraw; [1],0
same,"Plant response rating, Bedstraw",bedstraw; [2],0
same,Bedstraw plant response rating,bedstraw; [7],0
same,Bedstraw plant response rating,bedstraw; [8],9
same,Bedstraw plant response rating,bedstraw; [9],0
same,"Plant response rating, Bedstraw",bedstraw; [10],0
same,"Plant response rating, Bedstraw",bedstraw; [3],0
same,"Plant response rating, Nutsedge",purple nutsedge; [1],0
same,"Plant response rating, Nutsedge",purple nutsedge; [2],0
same,Nutsedge plant response rating (0 to 10 scale),"purple nutsedge; Preemergence, Rate 125 g/ha",0
same,Nutsedge plant response rating,"purple nutsedge; Preemergence, Rate 250 g/ha",0
same,Nutsedge plant response rating,"purple nutsedge; Preemergence, Rate 500 g/ha",0
same,Nutsedge plant response rating,"purple nutsedge; Rate 62 g/ha, Postemergence",0
same,"Plant response rating, Nutsedge",purple nutsedge; [3],0
